Reference: patent US20210047304A1, “Bromodomain Inhibitors” (AbbVie Inc., priority 2016, published 2021)

Biological target: BRD4 (BDI_K57-E168) (Homo sapiens, UniProt O60885)
Assay: TR-FRET bromodomain binding assay, BRD4 BDI
Protocol: A time-resolved fluorescence resonance energy transfer (TR-FRET) assay was used to determine the affinities of compounds of the Examples listed in Table 1 for each bromodomain of BRD4. […] An Alexa647-labeled BET-inhibitor was used as the fluorescent probe in the assay.
(§1) Compound dilution series were prepared in DMSO via an approximately 3-fold serial dilution. Compound dilutions were added directly into white, low-volume assay plates (Perkin Elmer Proxiplate 384 Plus #6008280) using a Labcyte Echo in conjunction with Labcyte Access and Thermo Multidrop CombinL robotics. Compounds were then suspended in eight microliters (μL) of assay buffer (20 mM Sodium Phosphate, pH 6.0, 50 mM NaCl, 1 mM Ethylenediaminetetraacetic acid disodium salt dihydrate, 0.01% Triton X-100, 1 mM DL-Dithiothreitol) containing His-tagged bromodomain, Europium-conjugated anti-His antibody (Invitrogen PV5596) and Alexa-647-conjugated probe.
After a one-hour equilibration at room temperature, TR-FRET ratios were determined using an Envision multilabel plate reader (Ex 340, Em 495/520).
TR-FRET data were normalized to the means of 24 no-compound controls (“high”) and 8 controls containing 1 μM un-labeled probe (“low”). Percent inhibition was plotted as a function of compound concentration and the data were fit with the 4 parameter logistic equation to obtain IC50s. Inhibition constants (Ki) were calculated from the IC50s, probe Kd and probe concentration.
Compound dilution series for Compounds A-E were prepared in DMSO via an approximately 3-fold serial dilution from 0.47 mM to 7.8 nM.
as §1, with “Compound” for “Compound dilution series were prepared in DMSO via an approximately 3-fold serial dilution. Compound”
TR-FRET data were normalized to the means of 24 no-compound controls (“high”) and 8 controls containing 1 μM un-labeled probe (“low”). Percent inhibition was plotted as a function of compound concentration and the data were fit with the 4 parameter logistic equation to obtain IC50s. Inhibition constants (Ki) were calculated from the IC50s, probe Kd and probe concentration. Typical Z′ values were between 0.65 and 0.75. The minimum significant ratio was determined to evaluate assay reproducibility (Eastwood et al., (2006) J Biomol Screen, 11: 253-261). The MSR was determined to be 2.03 for BDI and 1.93 for BDII, and a moving MSR (last six run MSR overtime) for both BDI and BDII was typically <3.

Ki [µM]	Compound
3.68	Cc1cc(F)cc(C)c1Oc1ccc(C(C)(C)O)cc1-c1cn(C)c(=O)cc1NC1CCN(S(C)(=O)=O)CC1 [Example 9, 5-[2-(4-fluoro-2,6-dimethylphenoxy)-5-(2-hydroxypropan-2-yl)phenyl]-4-{[1-(methanesulfonyl)piperidin-4-yl]amino}-1-methylpyridin-2(1H)-one]
> 13	Cc1cc(F)cc(C)c1Oc1ccc(C(C)(C)O)cc1-c1cn(C)c(=O)cc1O[C@H]1CC[C@@H](C(=O)O)CC1 [Example 75, cis-4-({5-[2-(4-fluoro-2,6-dimethylphenoxy)-5-(2-hydroxypropan-2-yl)phenyl]-1-methyl-2-oxo-1,2-dihydropyridin-4-yl}oxy)cyclohexane-1-carboxylic acid]
> 13	CCc1c(-c2cc(C(C)(C)O)ccc2Oc2c(C)cc(F)cc2C)c(O[C@H]2CC[C@H](N3CCCC3=O)CC2)cc(=O)n1C [Example 33, 6-ethyl-5-[2-(4-fluoro-2,6-dimethylphenoxy)-5-(2-hydroxypropan-2-yl)phenyl]-1-methyl-4-{[trans-4-(2-oxopyrrolidin-1-yl)cyclohexyl]oxy}pyridin-2(1H)-one]
5.96	CCNC(=O)[C@H]1CC[C@H](Oc2cc(=O)n(C)cc2-c2cc(C(C)(C)O)ccc2Oc2c(C)cc(F)cc2C)CC1 [Example 63, trans-N-ethyl-4-({5-[2-(4-fluoro-2,6-dimethylphenoxy)-5-(2-hydroxypropan-2-yl)phenyl]-1-methyl-2-oxo-1,2-dihydropyridin-4-yl}oxy)cyclohexane-1-carboxamide]
1.95	COCCN(C(=O)C1(C)CC1)[C@H]1CC[C@H](Oc2cc(=O)n(C)cc2-c2cc(C(C)(C)O)ccc2Oc2c(C)cc(F)cc2C)CC1 [Example 64, N-[trans-4-({5-[2-(4-fluoro-2,6-dimethylphenoxy)-5-(2-hydroxypropan-2-yl)phenyl]-1-methyl-2-oxo-1,2-dihydropyridin-4-yl}oxy)cyclohexyl]-N-(2-methoxyethyl)-1-methylcyclopropane-1-carboxamide]
2.16	CC(=O)NN[C@H]1CC[C@H](Oc2cc(=O)n(C)cc2-c2cc(C(C)(C)O)ccc2Oc2c(C)cc(F)cc2C)CC1 [Example 105, N′-[trans-4-({5-[2-(4-fluoro-2,6-dimethylphenoxy)-5-(2-hydroxypropan-2-yl)phenyl]-1-methyl-2-oxo-1,2-dihydropyridin-4-yl}oxy)cyclohexyl]acetohydrazide]
2.48	Cc1cc(F)cc(C)c1Oc1ccc(C(C)(C)O)cc1-c1cn(C)c(=O)cc1O[C@H]1CC[C@H](N2CCCN(C)C2=O)CC1 [Example 41, 1-[trans-4-({5-[2-(4-fluoro-2,6-dimethylphenoxy)-5-(2-hydroxypropan-2-yl)phenyl]-1-methyl-2-oxo-1,2-dihydropyridin-4-yl}oxy)cyclohexyl]-3-methyltetrahydropyrimidin-2(1H)-one]
6.06	CNC(=O)N(C)Cc1ccc(Oc2c(C)cccc2C)c(-c2cn(C)c(=O)cc2O[C@H]2CC[C@H](NC(=O)C3(C)CC3)CC2)c1 [Example 113, N-[trans-4-({5-[2-(2,6-dimethylphenoxy)-5-{[methyl(methylcarbamoyl)amino]methyl}phenyl]-1-methyl-2-oxo-1,2-dihydropyridin-4-yl}oxy)cyclohexyl]-1-methylcyclopropane-1-carboxamide]
> 13	Cc1cc(F)cc(C)c1Oc1ccc(C(C)(C)O)cc1-c1cn(C)c(=O)cc1O[C@H]1CC[C@H](N2C(=O)O[C@@H](C)C2=O)CC1 [Example 92, (5S)-3-[trans-4-({5-[2-(4-fluoro-2,6-dimethylphenoxy)-5-(2-hydroxypropan-2-yl)phenyl]-1-methyl-2-oxo-1,2-dihydropyridin-4-yl}oxy)cyclohexyl]-5-methyl-1,3-oxazolidine-2,4-dione]

Second part, the molecule before the results:

Compound	Ki [µM]
Cc1cc(F)cc(C)c1Oc1ccc(C(C)(C)O)cc1-c1cn(C)c(=O)cc1O[C@H]1CC[C@H](N(C)C(=O)C(C)(C)C)CC1 [Example 59, N-[trans-4-({5-[2-(4-fluoro-2,6-dimethylphenoxy)-5-(2-hydroxypropan-2-yl)phenyl]-1-methyl-2-oxo-1,2-dihydropyridin-4-yl}oxy)cyclohexyl]-N,2,2-trimethylpropanamide]	6.55
Cc1cc(F)cc(C)c1Oc1ccc(C(C)(C)O)cc1-c1cn(C)c(=O)cc1O[C@H]1CC[C@H](n2nccc2O)CC1 [Example 114, 5-[2-(4-fluoro-2,6-dimethylphenoxy)-5-(2-hydroxypropan-2-yl)phenyl]-4-{[trans-4-(5-hydroxy-1H-pyrazol-1-yl)cyclohexyl]oxy}-1-methylpyridin-2(1H)-one]	4.66
C=CC(=O)N[C@H]1CC[C@H](Oc2cc(=O)n(C)cc2-c2cc(C(C)(C)O)ccc2Oc2c(C)cc(F)cc2C)CC1 [Example 28, N-[trans-4-({5-[2-(4-fluoro-2,6-dimethylphenoxy)-5-(2-hydroxypropan-2-yl)phenyl]-1-methyl-2-oxo-1,2-dihydropyridin-4-yl}oxy)cyclohexyl]prop-2-enamide]	1.52
CC(=O)N[C@H]1CC[C@H](Oc2cc(=O)n(C)cc2-c2cc(C(C)(C)O)cnc2Oc2c(C)cc(C(C)(C)O)cc2C)CC1 [Example 17, N-[trans-4-({5′-(2-hydroxypropan-2-yl)-2′-[4-(2-hydroxypropan-2-yl)-2,6-dimethylphenoxy]-1-methyl-6-oxo[1,6-dihydro[3,3′-bipyridine]]-4-yl}oxy)cyclohexyl]acetamide]	1.17
Cc1cc(F)cc(C)c1Oc1ccc(C(C)(C)O)cc1-c1cn(C)c(=O)cc1O[C@H]1CC[C@H](NC(=O)C23CCC(CO)(CC2)CC3)CC1 (relative stereo) [Example 110, N-[trans-4-({5-[2-(4-fluoro-2,6-dimethylphenoxy)-5-(2-hydroxypropan-2-yl)phenyl]-1-methyl-2-oxo-1,2-dihydropyridin-4-yl}oxy)cyclohexyl]-4-(hydroxymethyl)bicyclo[2.2.2]octane-1-carboxamide]	3.65
CC(=O)N1CCC(=O)N1[C@H]1CC[C@H](Oc2cc(=O)n(C)cc2-c2cc(C(C)(C)O)ccc2Oc2c(C)cc(F)cc2C)CC1 [Example 112, 4-{[trans-4-(2-acetyl-5-oxopyrazolidin-1-yl)cyclohexyl]oxy}-5-[2-(4-fluoro-2,6-dimethylphenoxy)-5-(2-hydroxypropan-2-yl)phenyl]-1-methylpyridin-2(1H)-one]	4.86
Cc1cc(F)cc(C)c1Oc1ccc(C(C)(C)O)cc1-c1cn(C)c(=O)cc1O[C@H]1CC[C@H](C(=O)N(C)C)CC1 [Example 108, trans-4-({5-[2-(4-fluoro-2,6-dimethylphenoxy)-5-(2-hydroxypropan-2-yl)phenyl]-1-methyl-2-oxo-1,2-dihydropyridin-4-yl}oxy)-N,N-dimethylcyclohexane-1-carboxamide]	5.44
CC(=O)NC1(C)CCC(Oc2cc(=O)n(C)cc2-c2cc(C(C)(C)O)ccc2Oc2c(C)cc(F)cc2C)CC1 (stereo not drawn) [Example 32, N-[trans-4-({5-[2-(4-fluoro-2,6-dimethylphenoxy)-5-(2-hydroxypropan-2-yl)phenyl]-1-methyl-2-oxo-1,2-dihydropyridin-4-yl}oxy)-1-methylcyclohexyl]acetamide]	1.01
CC(=O)NC[C@H]1C[C@H](Oc2cc(=O)n(C)cc2-c2cc(C(C)(C)O)ccc2Oc2c(C)cc(F)cc2C)C1 [Example 6, N-{[trans-3-({5-[2-(4-fluoro-2,6-dimethylphenoxy)-5-(2-hydroxypropan-2-yl)phenyl]-1-methyl-2-oxo-1,2-dihydropyridin-4-yl}oxy)cyclobutyl]methyl}acetamide]	0.72
Cc1cc(F)cc(C)c1Oc1ccc(C(C)(C)O)cc1-c1cn(C)c(=O)cc1O[C@H]1CC[C@H](NC(=O)C2(C#N)CCC2)CC1 [Example 88, 1-cyano-N-[trans-4-({5-[2-(4-fluoro-2,6-dimethylphenoxy)-5-(2-hydroxypropan-2-yl)phenyl]-1-methyl-2-oxo-1,2-dihydropyridin-4-yl}oxy)cyclohexyl]cyclobutane-1-carboxamide]	3.98
Cc1cc(F)cc(C)c1Oc1ccc(C(C)(C)O)cc1-c1cn(C)c(=O)cc1O[C@H]1CC[C@H](C(=O)N2CCCC2)CC1 [Example 62, 5-[2-(4-fluoro-2,6-dimethylphenoxy)-5-(2-hydroxypropan-2-yl)phenyl]-1-methyl-4-{[trans-4-(pyrrolidine-1-carbonyl)cyclohexyl]oxy}pyridin-2(1H)-one]	8.37
